Source: ChEMBL document CHEMBL1201862, “PubChem BioAssay data set” (2004)
Calls of active or inactive are those of the source.

What was measured:
[1] = biological target: T1, Streptokinase A (Streptococcus pyogenes serotype M1, UniProt P10520); experiment: viability-normalized secreted streptokinase activity reduction – plasminogen activation absorbance, OD405, dose response (AID 1914); assay type: functional, Streptococcus pyogenes M1 GAS;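 note: secreted streptokinase activity via plasminogen activation per viability signal from cell pellet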
T1 sequence (P10520 whole entry): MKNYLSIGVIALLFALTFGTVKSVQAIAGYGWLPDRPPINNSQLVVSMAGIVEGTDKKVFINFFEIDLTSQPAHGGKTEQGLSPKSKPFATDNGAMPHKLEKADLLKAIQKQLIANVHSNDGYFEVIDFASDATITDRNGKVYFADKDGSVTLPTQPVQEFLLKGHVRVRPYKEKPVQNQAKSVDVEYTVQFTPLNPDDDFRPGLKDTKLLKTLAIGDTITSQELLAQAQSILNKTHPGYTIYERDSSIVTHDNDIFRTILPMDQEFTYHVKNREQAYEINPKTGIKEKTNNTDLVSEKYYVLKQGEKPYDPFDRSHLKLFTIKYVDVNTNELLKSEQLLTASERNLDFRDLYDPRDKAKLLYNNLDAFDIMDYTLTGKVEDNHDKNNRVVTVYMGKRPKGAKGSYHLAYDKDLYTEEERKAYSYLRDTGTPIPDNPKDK

[2] = biological target: T2, Protein RecA (Mycobacterium tuberculosis, UniProt P9WHJ3); experiment: Fluorescence Cell-Free Homogeneous Dose Retest to Identify Inhibitors of RecA-Intein Splicing Activity. [Related pubchem assays (depositor defined):AID2097, AID2223, AID489010, AID492950]; assay type: functional
T2 sequence (P9WHJ3 whole entry): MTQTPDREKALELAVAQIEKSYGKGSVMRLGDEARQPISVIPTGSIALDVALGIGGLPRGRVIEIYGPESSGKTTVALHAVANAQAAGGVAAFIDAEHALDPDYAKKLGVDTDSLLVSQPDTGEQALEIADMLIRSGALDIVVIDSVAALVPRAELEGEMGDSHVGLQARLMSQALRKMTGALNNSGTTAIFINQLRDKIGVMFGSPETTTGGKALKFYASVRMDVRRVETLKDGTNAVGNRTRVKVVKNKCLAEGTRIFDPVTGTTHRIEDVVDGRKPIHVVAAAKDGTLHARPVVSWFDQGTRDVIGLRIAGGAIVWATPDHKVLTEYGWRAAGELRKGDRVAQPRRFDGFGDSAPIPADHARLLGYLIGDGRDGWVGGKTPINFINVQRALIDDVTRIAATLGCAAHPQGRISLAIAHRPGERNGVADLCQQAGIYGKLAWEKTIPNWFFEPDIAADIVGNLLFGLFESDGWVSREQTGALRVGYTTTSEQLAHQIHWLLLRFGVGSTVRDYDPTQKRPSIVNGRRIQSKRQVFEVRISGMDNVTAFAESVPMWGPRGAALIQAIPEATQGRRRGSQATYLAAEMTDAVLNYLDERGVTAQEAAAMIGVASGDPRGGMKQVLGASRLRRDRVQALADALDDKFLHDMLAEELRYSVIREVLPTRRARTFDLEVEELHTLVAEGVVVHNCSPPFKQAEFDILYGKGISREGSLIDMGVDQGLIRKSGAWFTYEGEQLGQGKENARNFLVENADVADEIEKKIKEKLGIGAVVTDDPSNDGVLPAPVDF

[3] = tested on: HEK293; experiment: cells; assay type: functional, cell-based; conditions: Homo sapiens
[4] = tested on: HEK293; experiment: NOD2 signaling inhibitors in MDP-stimulated cells, cell-based, uHTS, luminescence (AID 2001); assay type: functional; conditions: Homo sapiens
[5] = Counterscreen for AddAB inhibitors: absorbance-based bacterial cell-based high throughput dose response assay for inhibitors of bacterial viability. [Related pubchem assays (depositor defined):AID435030, AID449728, AID449731, AID488942, AID488955, AID488956]; assay type: functional
[6] = biological target: T3, Histone-lysine N-methyltransferase NSD2 (Homo sapiens, UniProt O96028); assay type: biochemical
T3 sequence (O96028 whole entry): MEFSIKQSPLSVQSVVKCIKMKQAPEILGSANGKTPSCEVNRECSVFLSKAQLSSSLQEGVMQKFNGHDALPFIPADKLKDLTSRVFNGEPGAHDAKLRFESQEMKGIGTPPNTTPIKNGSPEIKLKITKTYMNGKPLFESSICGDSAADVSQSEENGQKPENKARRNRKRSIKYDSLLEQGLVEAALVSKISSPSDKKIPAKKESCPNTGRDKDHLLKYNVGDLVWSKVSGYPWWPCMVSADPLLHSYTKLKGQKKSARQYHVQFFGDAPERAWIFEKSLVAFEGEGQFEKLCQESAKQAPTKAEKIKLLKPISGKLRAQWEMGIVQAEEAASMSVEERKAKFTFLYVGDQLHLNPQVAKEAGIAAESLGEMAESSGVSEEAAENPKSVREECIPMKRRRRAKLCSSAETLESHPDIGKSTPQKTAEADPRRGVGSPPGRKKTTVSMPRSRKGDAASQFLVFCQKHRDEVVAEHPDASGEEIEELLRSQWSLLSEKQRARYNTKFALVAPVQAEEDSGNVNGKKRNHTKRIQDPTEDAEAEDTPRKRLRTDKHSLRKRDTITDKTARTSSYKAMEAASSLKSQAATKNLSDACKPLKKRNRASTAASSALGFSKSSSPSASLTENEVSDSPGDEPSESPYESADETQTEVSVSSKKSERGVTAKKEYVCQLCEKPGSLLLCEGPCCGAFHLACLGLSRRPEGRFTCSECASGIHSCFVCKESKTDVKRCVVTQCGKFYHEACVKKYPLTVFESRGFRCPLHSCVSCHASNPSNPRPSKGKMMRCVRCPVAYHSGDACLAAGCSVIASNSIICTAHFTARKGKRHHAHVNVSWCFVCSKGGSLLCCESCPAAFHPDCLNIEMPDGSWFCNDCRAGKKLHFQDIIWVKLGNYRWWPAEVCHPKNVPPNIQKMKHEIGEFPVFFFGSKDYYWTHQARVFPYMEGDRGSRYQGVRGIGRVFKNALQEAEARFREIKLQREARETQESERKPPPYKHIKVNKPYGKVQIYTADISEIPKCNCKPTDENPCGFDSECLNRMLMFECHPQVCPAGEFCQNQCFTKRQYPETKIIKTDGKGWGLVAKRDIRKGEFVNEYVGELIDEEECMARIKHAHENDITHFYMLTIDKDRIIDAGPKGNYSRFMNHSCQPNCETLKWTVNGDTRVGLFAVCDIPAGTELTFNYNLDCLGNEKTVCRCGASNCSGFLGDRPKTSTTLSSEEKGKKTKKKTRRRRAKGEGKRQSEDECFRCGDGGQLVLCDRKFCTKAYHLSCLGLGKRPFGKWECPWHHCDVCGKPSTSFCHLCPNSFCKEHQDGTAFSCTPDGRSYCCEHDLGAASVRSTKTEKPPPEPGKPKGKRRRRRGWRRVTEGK

COc1ccc(CNC(=O)c2c(C)oc3c2C(=O)c2ccccc2C3=O)cc1
EC50 [1]: > 150 µM (not active) | EC50 [2]: 5.29 µM (active)

CCSc1nsc(NC(=O)Nc2cccc(F)c2)n1
EC50 [1]: 40.5 µM (active) | IC50 [3]: 10.8 µM (active) | IC50 [4]: 3.82 µM (inactive) | IC50 [5]: > 119 µM (inactive)

O=[N+]([O-])c1ccc(/C=N/n2cnc3ccccc32)s1
IC50 [5]: 91.4 µM (inactive)

CC(C)c1ccc(S(=O)(=O)/N=C2\C=C(NS(=O)(=O)c3ccccc3)C(=O)c3ccccc32)cc1
EC50 [2]: 3.69 µM (active) | AC50 [6]: 4 µM (active)
